Consider one molecule from paper PMC12250129, “Exploring the Therapeutic Potential of ^177Lu-PSMA-617 in a Mouse Model of Prostate Cancer Bone Metastases” (International Journal of Molecular Sciences, 2025).

The series is described as follows: Absorbed radiation dose calculations (OLINDA/EXM), extrapolated from mouse data. The arrangement: species or system human. Conditions: 70 kg male adult. On the procedure:
Radiation doses (mGy/GBq) for major human organs (male) were calculated using the OLINDA/EXM Version 1.1 software. The organ-specific radiation absorbed doses following the administration of ^177Lu-PSMA-617 to humans were estimated based on residence times derived from mouse data and are presented in Table 1. […] The overall effective dose was 0.127 mSv/MBq. These findings provide critical insights into the dosimetry profile of ^177Lu-PSMA-617, aiding in the assessment of its safety and therapeutic potential.
The absorbed radiation dose calculations were performed as previously reported. For the estimation of mean absorbed doses in humans, the relative organ mass scaling method was used. The calculated mean value of the percentage injected activity per gram of tissue (%IA/g) for the organs in mice was extrapolated to the uptake amount in the organs of a 70 kg adult using the following formula:[(%IA/gorgan)animal × (kgTB weight)animal] × (gorgan/kgTB weight)human = (%IA/organ)human
The extrapolated values (%IA) in human organs at 1, 4, 24, and 48 h were fitted with exponential biokinetic models and integrated to obtain the number of disintegrations in the source organs; this information was entered into the OLINDA/EXM computer program. The integrals (MBq-s) for 11 organs, including heart contents (blood), the heart, the liver, the spleen, the lung, the kidney, muscle, the brain, bone, the small intestine, and the remainder of the body, were evaluated and used for the dosimetry evaluation.

On to `O=C([O-])CN1CCN(CC(=O)[O-])CCN(CC(=O)NCC2CCC(C(=O)N[C@@H](Cc3ccc4ccccc4c3)C(=O)NCCCC[C@H](NC(=O)N[C@@H](CCC(=O)O)C(=O)O)C(=O)O)CC2)CCN(CC(=O)[O-])CC1.[177Lu+3]` (stereo partly shown) [^177Lu-PSMA-617], for which the “Estimated Dose” value reads like this: (Adrenals) 8.15E−04 mSv/MBq; (Brain) 3.54E−05 mSv/MBq; (Breasts) 7.86E−03 mSv/MBq; (Kidneys) 2.19E−04 mSv/MBq; (LLI Wall) 2.01E−02 mSv/MBq; (Liver) 5.81E−04 mSv/MBq. In addition, the “Estimated Dose” value was 1.47E−03 mSv/MBq (Lungs); 6.33E−05 mSv/MBq (Muscle); 4.98E−03 mSv/MBq (Osteogenic Cells); 8.27E−04 mSv/MBq (Pancreas); 1.47E−02 mSv/MBq (Red Marrow); 1.54E−03 mSv/MBq (Skin). Besides, the “Estimated Dose” value by setting is: (Small Intestine) 8.52E−04 mSv/MBq; (Spleen) 6.92E−05 mSv/MBq; (Stomach Wall) 1.98E−02 mSv/MBq; (Testes) 2.16E−02 mSv/MBq; (Thymus) 8.01E−04 mSv/MBq; (Thyroid) 8.08E−03 mSv/MBq. In addition, the “Estimated Dose” value (ULI Wall) is listed as 8.45E−04 mSv/MBq, the “Estimated Dose” value (Urinary Bladder Wall) is reported as 8.32E−03 mSv/MBq and the “Estimated Dose” value (Uterus) is on record as 8.48E−04 mSv/MBq. Moreover, under “overall effective dose”, the “Effective Dose” value is recorded as 1.27E−01 mSv/MBq.
